Source: patent publication US12551500B2, “C6′-substituted locked nucleic acid-modified cap analog and use thereof” (Hangzhou Tianlong Pharmaceutical Co., Ltd., priority 2024, dated 2026)

Experiments:
HEK293T cells = experiment: Translation efficiency of capped luciferase mRNAs; type: cell-based; conditions: for relative fluorescence intensity, times that of HN3002: ratio to HN3002; for relative fluorescence intensity, times that of N-7413: ratio to N-7413; for relative fluorescence intensity, times that of YK-CAP-001: ratio to YK-CAP-001; for relative fluorescence intensity, times that of YK-CAP-002: ratio to YK-CAP-002; for relative fluorescence intensity, times that of m6A: ratio to m6A
Protocol: (1) HEK293T cells were cultured in DMEM medium containing 10% FBS and penicillin/streptomycin at 37° C. with 5% CO2.
(2) Cells in the culture dish were digested and counted, then spread in a 96-well plate at 10,000 cells per well, and cultured overnight until the cells adhered to the wall.
(3) When the cell density reached approximately 80%, transfection was performed by adding 0.5 μg of mRNA sample and Lipofectamine MessengerMAX Transfection Reagent (Invitrogen) per well according to the manufacturer's instructions.
(4) After the transfected cells were cultured at 37° C. with 5% CO2 for 24 hours, the growth medium was removed from the cells to be tested, and the cells were rinsed with PBS. After centrifugation to remove PBS, 50 μL of 1× lysis buffer was added. The cells and all liquid were transferred to a microcentrifuge tube and centrifuged.
(5) 20 μL of sample was taken and added to 100 μL of Dual-Lumi™ II Luciferase Assay Reagent pre-equilibrated to room temperature, and mixed appropriately.
(6) The mixture was incubated at room temperature (approximately 25° C.) for 5 minutes to stabilize the luminescence signal. Chemiluminescence was detected using a multifunctional microplate reader with a function for detecting chemiluminescence, and the data were recorded.

BALB/C mice = experiment: In vivo imaging of protein expressed by LNP-carrying Fluc-mRNA in mice; conditions: for Average radiation intensity: female BALB/C mice; for average radiation intensity, times that of N-7413: ratio to N-7413; for average radiation intensity, times that of YK-CAP-001: ratio to YK-CAP-001; for average radiation intensity, times that of YK-CAP-002: ratio to YK-CAP-002; for average radiation intensity, times that of compound 14: ratio to compound 14; for average radiation intensity, times that of m6A: ratio to m6A
Protocol: The LNP preparation containing […] of Fluc-mRNAs transcribed using the cap analogs YK-CAP-001 to 006 in the present disclosure and the cap analogs N-7413, compound 14, and m6A in the prior art was intramuscularly injected into female BALB/C mice aged 4 to 6 weeks and weighing 17 to 19 g. At specific time points after administration (6 hours, 12 hours, 24 hours, 48 hours, 96 hours, and 168 hours), the mice were intraperitoneally injected with fluorescence imaging substrate. The mice were then allowed to move freely for 5 minutes, followed by detection of the average radiation intensity (corresponding to the amount of protein expression) of the protein expressed by LNP-carrying mRNA in the mice using an IVIS Spectrum small-animal in vivo imaging system.

T7 RNA polymerase = T7 RNA polymerase (Escherichia phage T7, UniProt P00573); experiment: Capping rate of in vitro transcribed mRNA by LC-MS; type: biochemical; conditions: for capping rate higher than that of compound 14: difference to compound 14
Protocol: YK-CAP-001 to 006 and compound 14 in Table 1 were respectively used as cap analogs.
During the experiment, the volume of materials required for the system was first calculated, and then sample addition was conducted. The system was first added with sterile enzyme-free water, followed by the sequential addition of 10× buffer, NTPs, and cap analogs, mixed well, and gently centrifuged. Nuclease inhibitors, inorganic pyrophosphatase, T7 RNA polymerase, and linearized DNA templates were then added thereto. The system was mixed well, gently centrifuged, and incubated at 37° C. After 2 hours of incubation, the system was added with 1 U of DNase I and incubated at 37° C. for another 30 minutes. The mRNA precipitate was then washed with 75% ethanol, and after the ethanol was briefly evaporated to dryness, the mRNA was redissolved in sterile enzyme-free water.
(4) The obtained mRNA was subjected to an annealing reaction with a probe.
The annealing reaction was performed in a PCR instrument: 95° C. for 5 minutes; 65° C. for 2 minutes; 55° C. for 2 minutes; 40° C. for 2 minutes; 22° C. for 2 minutes.
(5) Magnetic bead pretreatment and probe binding: 100 μL of magnetic beads was placed on a magnetic frame for pretreatment. The magnetic bead solution was added with 120 μL of sample and incubated at room temperature for 30 minutes with slow mixing.
(6) mRNA splicing and obtaining the 5′ single-strand sequence bound to the probe
The mixture was added with 20 μL of RNase H (5 U/μL) and incubated at 37° C. for 3 hours with mixing every half hour. After incubation, the magnetic beads were washed and then added with 100 μL of 75% methanol heated to 80° C. The mixture was heated to 80° C. on a heating plate, held for 3 minutes, then placed on a magnetic frame to aspirate the supernatant, and dried at room temperature for 45 minutes to a volume of 10 μL using a centrifugal evaporator. The sample was then resuspended in 50 μL of 100 μM EDTA/1% MeOH and ready for LC-MS analysis to determine the capping of RNA in the transcription reaction. Since there is a significant difference in molecular weight between capped and uncapped bases, the capping rate of mRNA transcription initiated by different cap analogs can be determined based on the difference in molecular mass.

[1] = Characterization of lipid nanoparticles encapsulating Fluc-mRNA; type: physicochemical; conditions: for Particle size: LNP (YK-009/DSPC/cholesterol/DMG-PEG2000) encapsulating Fluc-mRNA transcribed using the cap analog; for PDI: LNP encapsulating Fluc-mRNA transcribed using the cap analog; for EE: encapsulation efficiency of LNP encapsulating Fluc-mRNA transcribed using the cap analog
Protocol: Cationic lipid YK-009 (Beijing Youcare Kechuang Pharmaceutical Technology Co., Ltd.), DSPC (AVT (Shanghai) Pharmaceutical Technology Co., Ltd.), cholesterol (AVT (Shanghai) Pharmaceutical Technology Co., Ltd.), and DMG-PEG2000 were dissolved in ethanol at a molar ratio of 49:10:39.5:1.5, and the mRNA was diluted in 50 mM citrate buffer (pH=4). The ethanol lipid solution was mixed with the Fluc-mRNA aqueous solution prepared from different cap structures at a volume ratio of 1:3 using a microfluidic device at a flow rate of 10 mL/min to prepare LNPs at a weight ratio of total lipid to mRNA of approximately 15:1. The resulting liposomes were diluted to 10-fold volume with PBS, and then ultrafiltered with a 300 KDa ultrafiltration tube to remove ethanol. The volume was then fixed to a certain volume with PBS. Finally, the LNPs were filtered through a 0.2 μm sterile filter to obtain an LNP preparation encapsulating Fluc-mRNA using YK-009/DSPC/cholesterol/DMG-PEG2000 (at a molar ratio of 49:10:39.5:1.5).
The particle size and polydispersity index (PDI) were determined by dynamic light scattering using a Malvern laser particle size analyzer. 10 μL of the liposome solution was taken, diluted to 1 mL with RNase-free deionized water, and added to a sample pool. Each sample was measured in triplicate. The measurement conditions were: a scattering angle of 90° and a temperature of 25° C. The encapsulation efficiency of LNPs was determined using the Quant-iT RiboGreen RNA Quantification Kit (Thermo Fisher Scientific, UK) according to the manufacturer's instructions.

[2] = 6 h after intramuscular injection of LNP Fluc-mRNA
[3] = 12 h after intramuscular injection of LNP Fluc-mRNA
[4] = 24 h after intramuscular injection of LNP Fluc-mRNA
[5] = 48 h after intramuscular injection of LNP Fluc-mRNA
[6] = 96 h after intramuscular injection of LNP Fluc-mRNA
[7] = 168 h after intramuscular injection of LNP Fluc-mRNA

T7 RNA polymerase, sequence (P00573 whole entry): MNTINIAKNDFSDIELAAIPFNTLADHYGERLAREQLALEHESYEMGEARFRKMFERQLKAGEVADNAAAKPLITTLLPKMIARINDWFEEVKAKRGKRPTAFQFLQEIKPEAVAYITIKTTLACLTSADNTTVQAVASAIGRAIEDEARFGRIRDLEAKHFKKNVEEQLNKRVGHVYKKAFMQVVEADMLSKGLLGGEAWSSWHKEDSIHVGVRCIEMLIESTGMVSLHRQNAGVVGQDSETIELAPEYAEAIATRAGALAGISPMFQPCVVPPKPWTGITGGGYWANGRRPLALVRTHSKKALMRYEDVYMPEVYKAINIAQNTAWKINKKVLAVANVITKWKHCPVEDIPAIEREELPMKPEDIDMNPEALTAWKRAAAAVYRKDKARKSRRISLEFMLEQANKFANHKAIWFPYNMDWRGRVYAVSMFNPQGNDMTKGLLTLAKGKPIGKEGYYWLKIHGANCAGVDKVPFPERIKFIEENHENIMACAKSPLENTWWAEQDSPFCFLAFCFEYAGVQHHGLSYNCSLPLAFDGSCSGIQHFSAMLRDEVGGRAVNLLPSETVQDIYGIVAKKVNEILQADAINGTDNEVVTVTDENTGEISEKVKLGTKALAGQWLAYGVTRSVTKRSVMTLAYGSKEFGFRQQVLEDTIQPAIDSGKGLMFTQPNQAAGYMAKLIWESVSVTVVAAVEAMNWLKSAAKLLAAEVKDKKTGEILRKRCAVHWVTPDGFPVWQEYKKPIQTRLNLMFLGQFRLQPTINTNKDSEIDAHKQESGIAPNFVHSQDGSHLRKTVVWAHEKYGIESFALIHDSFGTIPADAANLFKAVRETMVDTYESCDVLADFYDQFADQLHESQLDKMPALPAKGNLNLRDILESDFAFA

Row | Compound | relative fluorescence intensity, times that of HN3002 (HEK293T cells) [times] | relative fluorescence intensity, times that of N-7413 (HEK293T cells) [times] | relative fluorescence intensity, times that of YK-CAP-001 (HEK293T cells) [times] | relative fluorescence intensity, times that of YK-CAP-002 (HEK293T cells) [times] | relative fluorescence intensity, times that of m6A (HEK293T cells) [times] | Average radiation intensity (BALB/C mice; [2]) [p/s/cm^2/sr] | Average radiation intensity (BALB/C mice; [3]) [p/s/cm^2/sr] | Average radiation intensity (BALB/C mice; [4]) [p/s/cm^2/sr] | Average radiation intensity (BALB/C mice; [5]) [p/s/cm^2/sr] | Average radiation intensity (BALB/C mice; [6]) [p/s/cm^2/sr] | Average radiation intensity (BALB/C mice; [7]) [p/s/cm^2/sr] | average radiation intensity, times that of N-7413 (BALB/C mice; at 6 hours) [times] | average radiation intensity, times that of YK-CAP-001 (BALB/C mice; at 6 hours) [times] | average radiation intensity, times that of YK-CAP-002 (BALB/C mice; at 6 hours) [times] | average radiation intensity, times that of compound 14 (BALB/C mice; at 6 hours) [times] | average radiation intensity, times that of m6A (BALB/C mice; at 6 hours) [times] | average radiation intensity, times that of N-7413 (BALB/C mice; at 96 hours) [times] | average radiation intensity, times that of YK-CAP-001 (BALB/C mice; at 96 hours) [times] | average radiation intensity, times that of YK-CAP-002 (BALB/C mice; at 96 hours) [times] | average radiation intensity, times that of compound 14 (BALB/C mice; at 96 hours) [times] | also measured
1 | COC1C(OP(=O)([O-])OC[C@H]2O[C@@H](n3cnc4c(=O)[nH]c(N)nc43)C(O)C2O)[C@@H](COP(=O)(O)OP(=O)(O)OP(=O)(O)OC[C@]23O[C@@H]([n+]4cn(C)c5c(=O)[nH]c(N)nc54)C(O[C@H]2CC(=O)N(C)C)C3O)O[C@H]1n1cnc2c(N)ncnc21 (stereo partly drawn) [YK-CAP-003] | 1.1 | 1.2 | 1.6 | 1.8 | 3.5 | 3212750 | 2454750 | 1053625 | 700200 | 57893 | 19016 | 1.2 | 1.9 | 2.2 | 1.2 | 1.8 | 0.8 | 1.3 | 2.8 | 1.0 | average radiation intensity, times that of m6A (BALB/C mice; at 96 hours): 1.7 times; capping rate higher than that of compound 14 (T7 RNA polymerase): 17.3%; Particle size [1]: 82.83 nm; PDI [1]: 0.032; EE [1]: 95.6%
2 | COC1C(OP(=O)([O-])OC[C@H]2O[C@@H](n3cnc4c(=O)[nH]c(N)nc43)C(O)C2O)[C@@H](COP(=O)(O)OP(=O)(O)OP(=O)(O)OC[C@]23O[C@@H]([n+]4cn(C)c5c(=O)[nH]c(N)nc54)C(O[C@H]2CC(F)F)C3O)O[C@H]1n1cnc2c(N)ncnc21 (stereo partly drawn) [YK-CAP-004] | 1.2 | 1.4 | 1.8 | 2.0 | 4.0 | 3856100 | 2836750 | 1159325 | 903025 | 114933 | 19785 | 1.4 | 2.2 | 2.6 | 1.5 | 2.1 | 1.7 | 2.6 | 5.5 | 2.0 | average radiation intensity, times that of m6A (BALB/C mice; at 96 hours): 3.4 times; capping rate higher than that of YK-CAP-001 (T7 RNA polymerase; difference to YK-CAP-001): 23.2%; capping rate higher than that of YK-CAP-002 (T7 RNA polymerase; difference to YK-CAP-002): 26.1%; capping rate higher than that of compound 14 (T7 RNA polymerase): 18.8%; Capping rate (T7 RNA polymerase; mRNA transcribed with the cap analog, LC-MS): 96.3%; Particle size [1]: 89.39 nm; PDI [1]: 0.065; EE [1]: 93.7%
3 | COC1C(OP(=O)([O-])OC[C@H]2O[C@@H](n3cnc4c(=O)[nH]c(N)nc43)C(O)C2O)[C@@H](COP(=O)(O)OP(=O)(O)OP(=O)(O)OC[C@]23O[C@@H]([n+]4cn(C)c5c(=O)[nH]c(N)nc54)C(O[C@H]2CCS(C)(=O)=O)C3O)O[C@H]1n1cnc2c(N)ncnc21 (stereo partly drawn) [YK-CAP-005] | 1.1 | 1.3 | 1.6 | 1.9 | 3.7 | 3171000 | 2497200 | 998650 | 834250 | 110595 | 17807 | 1.1 | 1.8 | 2.2 | 1.2 | 1.8 | 1.6 | 2.5 | 5.3 | 1.9 | average radiation intensity, times that of m6A (BALB/C mice; at 96 hours): 3.3 times; capping rate higher than that of compound 14 (T7 RNA polymerase): 17.7%; Particle size [1]: 87.01 nm; PDI [1]: 0.064; EE [1]: 94.5%
